# Assay results taken from patent publication US11136321B2, “Tricyclic compounds” (ALIGOS THERAPEUTICS, INC., priority 2019, dated 2021).
# Tested on: HBV
# Experiment: HBV-DNA antiviral assay using HepG2.117 cells
# Format: cell-based, genotype D HBV
# Conditions: Hepatitis B virus, 72 h, intracellular HBV DNA by qPCR, 3 days incubation
# In short: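 HepG2.117 cells (genotype D HBV, Tet-off) seeded without doxycycline and treated for 3 days at 9 concentrations (4-fold dilutions) in 2% DMSO. Intracellular HBV DNA measured by qPCR against a standard curve, with viability from ATPlite run in parallel. EC50, EC90 and CC50 fitted relative to DMSO controls.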
row,SMILES,EC50
1,"CNC(=O)c1ccc(-n2c(=O)c3c(n4ncc(Cc5ccccc5)c24)CN(C(=O)c2ccc(Br)cn2)CC3)cc1 [Compound 56, 4-[5-benzyl-12-(5-bromopyridine-2-carbonyl)-8-oxo-2,3,7,12-tetrazatricyclo [7.4.0.0 2,6]trideca-1(9),3,5-trien-7-yl]-N-methyl-benzamide]",0.5 to 5 µM
2,"CNC(=O)c1ccc(-n2c(=O)c3c(n4ncc(Cc5ccc(F)cc5)c24)CN(C(=O)c2ccc(Br)c(Cl)c2)CC3)cc1 [Compound 59, 4-[12-(4-bromo-3-chloro-benzoyl)-5-[(4-fluorophenyl)methyl]-8-oxo-2,3,7,12-tetrazatricyclo [7.4.0.0 2,6]trideca-1(9),3,5-trien-7-yl]-N-methyl-benzamide]",≤ 0.1 µM
3,"CNC(=O)c1ccc(-n2c(=O)c3c(n4ncc(Cc5ccc(F)cc5)c24)CN(C(=O)c2ccc(Br)c(C#N)c2)CC3)cc1 [Compound 60, 4-[12-(4-bromo-3-cyano-benzoyl)-5-[(4-fluorophenyl)methyl]-8-oxo-2,3,7,12-tetrazatricyclo [7.4.0.0 2,6]trideca-1(9),3,5-trien-7-yl]-N-methyl-benzamide]",≤ 0.1 µM
4,"CCNC(=O)c1ccc(-n2c(=O)c3c(n4ncc(Cc5ccccc5)c24)CN(C(=O)c2ccc(Br)c(Cl)c2)CC3)cc1 [Compound 61, 4-[5-benzyl-12-(4-bromo-3-chloro-benzoyl)-8-oxo-2,3,7,12-tetrazatricyclo [7.4.0.0 2,6]trideca-1(9),3,5-trien-7-yl]-N-ethyl-benzamide]",0.5 to 5 µM
5,"CCNC(=O)c1ccc(-n2c(=O)c3c(n4ncc(Cc5ccccc5)c24)CN(C(=O)c2ccc(Br)c(C#N)c2)CC3)cc1 [Compound 62, 4-[5-benzyl-12-(4-bromo-3-cyano-benzoyl)-8-oxo-2,3,7,12-tetrazatricyclo [7.4.0.0 2,6]trideca-1(9),3,5-trien-7-yl]-N-ethyl-benzamide]",0.5 to 5 µM
6,"CNC(=O)c1ccc(-n2c(=O)c3c(n4ncc(Nc5ccc(F)cc5)c24)CN(C(=O)c2ccc(Br)c(C#N)c2)CC3)cc1 [Compound 63, 4-[12-(4-bromo-3-cyano-benzoyl)-5-(4-fluoroanilino)-8-oxo-2,3,7,12-tetrazatricyclo [7.4.0.0 2,6]trideca-1(9),3,5-trien-7-yl]-N-methyl-benzamide]",0.1 to 0.5 µM
7,"CC(C)NC(=O)c1ccc(-n2c(=O)c3c(n4ncc(Cc5ccccc5)c24)CN(C(=O)c2ccc(Br)c(Cl)c2)CC3)cc1 [Compound 64, 4-[5-benzyl-12-(4-bromo-3-chloro-benzoyl)-8-oxo-2,3,7,12-tetrazatricyclo [7.4.0.0 2,6]trideca-1(9),3,5-trien-7-yl]-N-isopropyl-benzamide]",0.5 to 5 µM
8,"CC(C)NC(=O)c1ccc(-n2c(=O)c3c(n4ncc(Cc5ccccc5)c24)CN(C(=O)c2ccc(Br)c(C#N)c2)CC3)cc1 [Compound 65, 4-[5-benzyl-12-(4-bromo-3-cyano-benzoyl)-8-oxo-2,3,7,12-tetrazatricyclo [7.4.0.0 2,6]trideca-1(9),3,5-trien-7-yl]-N-isopropyl-benzamide]",0.5 to 5 µM
9,"CNC(=O)c1ccc(-n2c(=O)c3c(n4ncc(NCc5ccccc5F)c24)CN(C(=O)c2ccc(Br)c(Cl)c2)CC3)cc1 [Compound 66, 4-[12-(4-bromo-3-chloro-benzoyl)-5-[(2-fluorophenyl)methylamino]-8-oxo-2,3,7,12-tetrazatricyclo [7.4.0.0 2,6]trideca-1(9),3,5-trien-7-yl]-N-methyl-benzamide]",≤ 0.1 µM
10,"CNC(=O)c1ccc(-n2c(=O)c3c(n4ncc(NCc5ccc(F)cc5)c24)CN(C(=O)c2ccc(Br)c(Cl)c2)CC3)cc1 [Compound 67, 4-[12-(4-bromo-3-chloro-benzoyl)-5-[(4-fluorophenyl)methylamino]-8-oxo-2,3,7,12-tetrazatricyclo [7.4.0.0 2,6]trideca-1(9),3,5-trien-7-yl]-N-methyl-benzamide]",≤ 0.1 µM
